From patent US20010051630A1, “Use of hydroxylamine derivatives, and method and preparations for increasing the tolerance of field crops against weather stresses” (priority 1997, published 2001)
Marks after values point to notes of the source that are not given here.

Experiments:
soybean cv. Bólyi 44 = experiment: Field soybean cultivation, yield; type: in vivo; conditions: for Weight of the crop (kg/m^2): seeds pearled with 1 mg active agent in 1 ml 5% PVA per 100 seeds; for Improvement compared to the control (%): weight of the crop
Procedure: The experiment was performed using soybean cv. Bólyi 44. Before sowing, the seeds were treated with Rhyzobium Japonicum nitrogen-binding bacterium, which forms a root nodule providing 50-70% of the nitrogen demand of the plant.
The examined compounds were applied by pearling the seeds; 1 ml of pearling agent containing 1 mg of active agent in a 5% aqueous PVA solution was used for 100 seeds.
The plants were sown after soil preparation in the autumn, using a crop rotation system, 3-5 cm deep in the ground, with a 45-50 cm row distance, a 5 cm plant distance and 450,000-500,000 plant/ha density. The date of sowing was Apr. 15, 1997. During the development of the plant, the usual cultivation procedures were followed and the usual pesticides were used. The harvest took place in September-October, with the water content of the grains being between 16-18%.

Mo 17 maize inbred line = experiment: Chilling tolerance of maize in a gradient chamber; type: in vivo
Procedure: The experiment was performed using the Mo 17 maize inbred line. The seeds were coated with a 2% solution of the examined compound dissolved in 2 ml polyvinylalcohol before germination, where the above quantity of solution is applied for 100 seeds. The seeds were germinated for 3 days wrapped in wet filter paper, they were sown and then cultivated in gradient chamber for 6 weeks. In the gradient chamber, the temperature was maintained on a scale between 18 and 12° C., with differences of 1° C. This was followed by a one week regeneration at 23/20° C. temperature.
In the experiment, the length of the plants was measured 16, 31 and 43 days after the sowing, and at the end of the experiment the fresh weight of the plants was measured. The experiment was performed on 4 plants at each temperature and by each treatment.

[1] = tested on: maize of high chilling tolerance (HT) population; experiment: CSVT, maize population of high chilling tolerance (HT); type: in vivo
Procedure: (§1) In this experiment the tolerance of maize, soybean and pepper seeds treated with the active agent against cold was tested. This test imposed temperature and oxygen deficiency stresses on the seeds and was carried out according to Barla-Szabó and Dolinka CSVT (Complex Stressing Vigour Test). For a single test, two hundred seeds were soaked for 48 hours at 25° C. and another 48 hours at 5° C in 150 ml distilled water containing the active agent in 10 mg/l concentration. Following the 96 hours of soaking, the seeds were further germinated between rolled wet paper for 96 hours at 25° C. There were 25 seeds in each roll, the rolls were placed vertically into containers and covered with a plastic bag in order to reduce evaporation. During the whole procedure the seeds were kept in darkness.
(§2) At the end of the experiment the number of normally developing and ungerminated seeds were recorded. The length of the normal seedlings was measured and the average length of the five longest seedlings was calculated. Seedlings longer than 0.33 times the average length of the five longest seedlings were considered to be of high vigour, and low vigour seedlings were shorter than this length.
(§3) In the case of a further experiment with maize of low chilling tolerance (LT) and high chilling tolerance (HT) populations [Ref: P. Landi, E. Frascaroli, A. Lovato; EUPHYTICA 64 21-29 (1992)], the following positive effects were found (Table 3.).

[2] = tested on: maize of low chilling tolerance (LT) population; experiment: CSVT, maize population of low chilling tolerance (LT); type: in vivo
Procedure: as §1, §2, §3

Mo 17 inbred maize line = experiment: CSVT (Complex Stressing Vigour Test), seeds soaked in active agent, Mo 17 maize; type: in vivo; conditions: seeds soaked in 10 mg/l active agent, * = significant vs control P < 0.05
Procedure: as §1, with “darkness. At the end of the experiment the number of normally developing and ungerminated seeds were recorded. The length of the normal seedlings was measured and the average length of the five longest seedlings was calculated. Seedlings longer than 0.33 times the average length of the five longest seedlings were considered to be of high vigour, and low vigour seedlings were shorter than this length.” for “darkness.”

McCall soybeans = experiment: CSVT with PVA-pearled McCall soybeans, relative length; type: in vivo, soybean; conditions: 2.5 mg in 1 ml 2.5% PVA per 100 seeds
Procedure: as §1
In a further CSVT experiment also using McCall soybeans, polyvinylalcohol (PVA) was applied for pearling the seeds. The 2.5 mg doses of the active agents were dissolved in 1 ml of 2.5% PVA solution, and this quantity was applied to 100 pieces of seeds. The improvement of the chilling tolerance is observed by the significant elongation of the germ and the roots.

HMv09 inbred maize line = experiment: CSVT, seeds soaked in active agent, HMv09 maize; type: in vivo; conditions: seeds soaked in 10 mg/l active agent
Procedure: as §1, with “darkness. At the end of the experiment the number of normally developing and ungerminated seeds were recorded. The length of the normal seedlings was measured and the average length of the five longest seedlings was calculated. Seedlings longer than 0.33 times the average length of the five longest seedlings were considered to be of high vigour, and low vigour seedlings were shorter than this length.” for “darkness.”

Seaway bean cultivar = experiment: Drought tolerance of beans, part a (5 days hardening); type: in vivo; conditions: 7 days without water, one week regeneration
Excerpt: Based on the experiences of our preliminary experiments, the plants were hardened before the application of the active agent by withholding the water for a few days, until the first signs of withering appeared. Then the plants were watered and the active agent was either dissolved in the water, or sprayed to the plants directly. Afterwards, the plants were subjected to different periods of drought according to the given experiment, watered again, and after a week-long regeneration period, the survival ratio was determined.
a) Seaway bean cultivar was hardened for 5 days by withholding the water. Afterwards the plantlets were watered for two days normally. During this time, a 10 mg/liter and 100 mg/liter concentration solution of the active agent was applied two times a day dissolved in water or by direct spraying. Then the water was withheld for 7 days, and after a week-long regeneration period, the survival ratio was determined.

Cl.O=[N+]([O-])c1ccccc1C(Cl)=NOCC(O)CN1CCCCC1 (stereo not shown) [Compound 4, N-[2-hydroxy-3-(1-piperidinyl)propoxy]-2′-nitro-benzenecarboximidoyl Chloride Monohydrochloride]
Weight of the crop (kg/m^2) (soybean cv. Bólyi 44): 0.50 kg/m^2
Improvement compared to the control (%) (soybean cv. Bólyi 44): 11.1%
Length (cm) (Mo 17 maize inbred line; 12° C., 16 days): 5.8 cm
Length (cm) (Mo 17 maize inbred line; 12° C., 31 days): 11.3 cm
FW (g), fresh weight (Mo 17 maize inbred line; 12° C., 43 days): 1.5 g
Length (cm) (Mo 17 maize inbred line; 12° C., 43 days): 20.1 cm
Length (cm) (Mo 17 maize inbred line; 13° C., 16 days): 7.4 cm
Length (cm) (Mo 17 maize inbred line; 13° C., 31 days): 13.1 cm
FW (g), fresh weight (Mo 17 maize inbred line; 13° C., 43 days): 2.1 g
Length (cm) (Mo 17 maize inbred line; 13° C., 43 days): 23.8 cm
Length (cm) (Mo 17 maize inbred line; 14° C., 16 days): 9.7 cm
Length (cm) (Mo 17 maize inbred line; 14° C., 31 days): 17.2 cm
FW (g), fresh weight (Mo 17 maize inbred line; 14° C., 43 days): 2.9 g
Length (cm) (Mo 17 maize inbred line; 14° C., 43 days): 25.1 cm
Length (cm) (Mo 17 maize inbred line; 15° C., 16 days): 10.2 cm
Length (cm) (Mo 17 maize inbred line; 15° C., 31 days): 21.3 cm
FW (g), fresh weight (Mo 17 maize inbred line; 15° C., 43 days): 4.4 g
Length (cm) (Mo 17 maize inbred line; 15° C., 43 days): 32.3 cm
Length (cm) (Mo 17 maize inbred line; 16° C., 16 days): 15.4 cm
Length (cm) (Mo 17 maize inbred line; 16° C., 31 days): 26.8 cm
FW (g), fresh weight (Mo 17 maize inbred line; 16° C., 43 days): 5.0 g
Length (cm) (Mo 17 maize inbred line; 16° C., 43 days): 34.5 cm
Length (cm) (Mo 17 maize inbred line; 17° C., 16 days): 19.7 cm
Length (cm) (Mo 17 maize inbred line; 17° C., 31 days): 31.2 cm
FW (g), fresh weight (Mo 17 maize inbred line; 17° C., 43 days): 6.6 g
Length (cm) (Mo 17 maize inbred line; 17° C., 43 days): 37.3 cm
Length (cm) (Mo 17 maize inbred line; 18° C., 16 days): 15.0 cm
Length (cm) (Mo 17 maize inbred line; 18° C., 31 days): 28.4 cm
FW (g), fresh weight (Mo 17 maize inbred line; 18° C., 43 days): 6.2 g
Length (cm) (Mo 17 maize inbred line; 18° C., 43 days): 38.0 cm
Ratio of high vigour plants %, HT [1]: 96* %
Ratio of high vigour plants %, LT [2]: 92* %
Ratio of high vigour plants (%) (Mo 17 inbred maize line): 32* %
Relative length (control = 100), germ (McCall soybeans): 116
Relative length (control = 100), root (McCall soybeans): 135

CNC(=NOCCCN1CCCCC1)N(C)c1ccccc1.Cl [Compound 6, N-N′-dimethyl-N′-phenyl-N″-[3-(1-piperidinyl)propoxy]-guanidine hydrochloride]
Ratio of high vigour plants (%) (Mo 17 inbred maize line): 36* %

CN(C)C(=NOCC(O)CN1CCCCC1)Nc1ccccc1.Cl (stereo not shown) [Compound 9, N,N-dimethyl-N′-phenyl-N″-[2-hydroxy-3-(1-piperidinyl)propoxy]-guanidine hydrochloride]
Ratio of high vigour plants (%) (HMv09 inbred maize line): 56* %

Cl.ClC(=NOCCCN1CCCCC1)c1cccs1 [Compound 10, N-[3-(1-piperidinyl)propoxy]-thiophene-2-carboximidoylchloride hydrochloride]
Ratio of high vigour plants (%) (HMv09 inbred maize line): 45* %

CC(C)(C)NCC(O)CONC(=Nc1ccccc1)c1ccccc1.Cl (stereo not shown) [Compound 5, N-[[3-(1,1-dimethylethyl)-amino]-2-hydroxypropoxy]-N′-phenyl-benzamidine hydrochloride]
Ratio of high vigour plants (%) (HMv09 inbred maize line): 57* %
Weight of the crop (kg/m^2) (soybean cv. Bólyi 44): 0.52 kg/m^2
Improvement compared to the control (%) (soybean cv. Bólyi 44): 15.5%
Length (cm) (Mo 17 maize inbred line; 12° C., 16 days): 4.5 cm
Length (cm) (Mo 17 maize inbred line; 12° C., 31 days): 10.9 cm
FW (g), fresh weight (Mo 17 maize inbred line; 12° C., 43 days): 2.0 g
Length (cm) (Mo 17 maize inbred line; 12° C., 43 days): 25.5 cm
Length (cm) (Mo 17 maize inbred line; 13° C., 16 days): 4.7 cm
Length (cm) (Mo 17 maize inbred line; 13° C., 31 days): 10.0 cm
FW (g), fresh weight (Mo 17 maize inbred line; 13° C., 43 days): 1.1 g
Length (cm) (Mo 17 maize inbred line; 13° C., 43 days): 18.5 cm
Length (cm) (Mo 17 maize inbred line; 14° C., 16 days): 5.8 cm
Length (cm) (Mo 17 maize inbred line; 14° C., 31 days): 11.6 cm
FW (g), fresh weight (Mo 17 maize inbred line; 14° C., 43 days): 1.3 g
Length (cm) (Mo 17 maize inbred line; 14° C., 43 days): 20.3 cm
Length (cm) (Mo 17 maize inbred line; 15° C., 16 days): 9.5 cm
Length (cm) (Mo 17 maize inbred line; 15° C., 31 days): 22.2 cm
FW (g), fresh weight (Mo 17 maize inbred line; 15° C., 43 days): 5.4 g
Length (cm) (Mo 17 maize inbred line; 15° C., 43 days): 34.0 cm
Length (cm) (Mo 17 maize inbred line; 16° C., 16 days): 12.4 cm
Length (cm) (Mo 17 maize inbred line; 16° C., 31 days): 26.4 cm
FW (g), fresh weight (Mo 17 maize inbred line; 16° C., 43 days): 7.7 g
Length (cm) (Mo 17 maize inbred line; 16° C., 43 days): 42.3 cm
Length (cm) (Mo 17 maize inbred line; 17° C., 16 days): 17.8 cm
Length (cm) (Mo 17 maize inbred line; 17° C., 31 days): 29.9 cm
FW (g), fresh weight (Mo 17 maize inbred line; 17° C., 43 days): 9.7 g
Length (cm) (Mo 17 maize inbred line; 17° C., 43 days): 44.3 cm
Length (cm) (Mo 17 maize inbred line; 18° C., 16 days): 14.6 cm
Length (cm) (Mo 17 maize inbred line; 18° C., 31 days): 25.0 cm
FW (g), fresh weight (Mo 17 maize inbred line; 18° C., 43 days): 7.6 g
Length (cm) (Mo 17 maize inbred line; 18° C., 43 days): 39.0 cm
survival (%), Watering (10 mg/l) (Seaway bean cultivar): 25* %
survival (%), Watering (100 mg/l) (Seaway bean cultivar): 36* %
Ratio of high vigour plants (%) (Mo 17 inbred maize line): 35* %
Relative length (control = 100), germ (McCall soybeans): 127
Relative length (control = 100), root (McCall soybeans): 152

Cl.c1ccc(N=C(NOCCCN2CCCCC2)c2ccccc2)cc1 [Compound 11, N-[3-(1-piperidinyl)propoxy]-N′-phenyl-benzamidine hydrochloride]
Ratio of high vigour plants (%) (HMv09 inbred maize line): 53* %

N-[2-hydroxy-3-(1-piperidinyl)propoxy]-ethylurethane [Compound 7]
Ratio of high vigour plants (%) (Mo 17 inbred maize line): 24%

CCCCCCCCCCCCCCCC(=O)OC(CONC(=N)c1cccnc1)CN1CCCCC1.Cl (stereo not shown) [Compound 2, N-[2-palmitoyloxy-3-(1-piperidinyl)propoxy]-3-pyridinecarboximidamide Monohydrochloride]
Ratio of high vigour plants %, HT [1]: 92* %
Ratio of high vigour plants %, LT [2]: 86* %
Ratio of high vigour plants (%) (Mo 17 inbred maize line): 47* %
Relative length (control = 100), germ (McCall soybeans): 133
Relative length (control = 100), root (McCall soybeans): 150

CCCCCCN(OCC(O)CN1CCCCC1)C(N)=O (stereo not shown) [Compound 8, N-hexyl-N-[2-hydroxy-3-(1-piperidinyl)propoxyl]-urea]
Ratio of high vigour plants (%) (Mo 17 inbred maize line): 23* %
